Reference: the supplement of paper PMC10627819

Legend:
[1] = test system: S. aureus DSM 20231; test: Bliss interaction score (quartile over a dose matrix) (fitness difference); higher = more antagonism (negative = synergy)
Method in brief: (§1)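 Fitness here means normalised growth, inferred for single drugs from the combination data. Growth was OD595 at entry into stationary phase, divided by the plate's robust no-drug mean and capped at 1. The Bliss score is observed minus expected fitness, with the expectation being the product, and its quartiles span technical, biological and donor/recipient replicates.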

[2] = test system: B. subtilis 168; test: as above
Method in brief: as §1

[3] = test system: S. pneumoniae D39V; test: as above
Method in brief: as §1

[4] = test system: S. aureus Newman; test: as above
Method in brief: as §1

[5] = test system: S. aureus DSM 20231; test: fitness (endpoint OD595 vs no drug) (fraction); higher = more growth
Method in brief: (§2)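 Fitness was measured as bacterial growth in 384-well plates inoculated at OD595 0.01 (30 µl, or 55 µl for S. pneumoniae). Media were TSB, LB Lennox or CY, at 37 °C. OD595 was read every 30 min for 14 h and background-subtracted against the first reading. Fitness is OD595 at the transition into stationary phase divided by the robust mean of no-drug control wells, capped at 1.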

[6] = test system: B. subtilis 168; test: as above
Method in brief: as §2

[7] = test system: S. pneumoniae D39V; test: as above
Method in brief: as §2

[8] = test system: S. aureus Newman; test: as above
Method in brief: as §2
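Throughout, for Bliss interaction score (quartile over a dose matrix): first quartile when negative (synergy) and third quartile when positive (antagonism).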
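Throughout, for fitness (endpoint OD595 vs no drug): OD595 on entry to stationary phase over no-drug wells; at most 1.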

COc1cccc2c1C(=O)c1c(O)c3c(c(O)c1C2=O)C[C@@](O)(C(=O)CO)C[C@@H]3O[C@H]1C[C@H](N)[C@H](O)[C@H](C)O1 [Doxorubicin] + Cc1onc(-c2ccccc2)c1C(=O)N[C@@H]1C(=O)N2[C@@H]1SC(C)(C)[C@@H]2C(=O)O [Oxacillin]
Conditions	Bliss interaction score
[1]	-0.0629
[2]	0.0758
[3]	0.0665
[4]	0.0538

fitness
Conditions	first compound 0.25 µg/mL	first compound 0.5 µg/mL	first compound 0.625 µg/mL	first compound 1 µg/mL	first compound 1.25 µg/mL	first compound 2.5 µg/mL
[5], partner 0.0156 µg/mL	–	–	0.738	–	0.756	0.599
[5], partner 0.0312 µg/mL	–	–	0.604	–	0.585	0.532
[5], partner 0.0625 µg/mL	–	–	0.479	–	0.481	0.466
[6], partner 0.002 µg/mL	–	–	0.995	–	0.895	0.749
[6], partner 0.004 µg/mL	–	–	0.932	–	0.89	0.675
[6], partner 0.008 µg/mL	–	–	0.881	–	0.871	0.512
[7], partner 0.005 µg/mL	≥ 1	≥ 1	–	0.997	–	–
[7], partner 0.01 µg/mL	0.941	0.973	–	0.924	–	–
[7], partner 0.02 µg/mL	0.889	0.897	–	0.891	–	–
[7], partner 0.04 µg/mL	0.252	0.337	–	0.323	–	–
[8], partner 0.0156 µg/mL	–	–	0.705	–	0.671	0.671
[8], partner 0.0312 µg/mL	–	–	0.637	–	0.633	0.645
[8], partner 0.0625 µg/mL	–	–	0.582	–	0.583	0.569

fitness, [6], one replicate
Conditions	partner 0.0078 µg/mL	partner 0.0155 µg/mL	partner 0.031 µg/mL	partner 0.075 µg/mL	partner 0.15 µg/mL	partner 0.3 µg/mL
first compound 0.625 µg/mL	≥ 1	≥ 1	0.943	0.468	0.0267	0.0431
first compound 1.25 µg/mL	0.965	0.934	0.857	0.496	0.0281	0.0304
first compound 2.5 µg/mL	0.652	0.666	0.477	0.0449	0.0184	0.0211

C[C@@H]1O[C@@H]1P(=O)(O)O [Fosfomycin] + Cc1ncc([N+](=O)[O-])n1CCO [Metronidazole]
Conditions	Bliss interaction score
[1]	-0.0362
[2]	0.0663
[3]	0.0507
[4]	-0.0452

fitness
Conditions	partner 0.625 µg/mL	partner 1.073 µg/mL	partner 1.25 µg/mL	partner 2.145 µg/mL	partner 2.5 µg/mL	partner 4.29 µg/mL	partner 5 µg/mL
[5], first compound 0.781 µg/mL	0.785	–	0.783	–	0.852	–	–
[5], first compound 1.562 µg/mL	0.605	–	0.624	–	0.682	–	–
[5], first compound 3.124 µg/mL	0.497	–	0.493	–	0.493	–	–
[6], first compound 1.562 µg/mL	0.72	–	0.687	–	0.701	–	–
[6], first compound 3.124 µg/mL	0.679	–	0.627	–	0.634	–	–
[6], first compound 6.248 µg/mL	0.583	–	0.573	–	0.481	–	–
[7], first compound 1.25 µg/mL	–	0.957	0.975	0.94	0.992	0.95	1
[7], first compound 2.5 µg/mL	–	0.929	0.97	0.798	0.965	0.914	0.995
[7], first compound 5 µg/mL	–	0.87	0.857	0.893	0.886	0.864	0.847
[8], first compound 0.781 µg/mL	0.58	–	0.636	–	0.612	–	–
[8], first compound 1.562 µg/mL	0.502	–	0.511	–	0.453	–	–
[8], first compound 3.124 µg/mL	0.133	–	0.079	–	0.0859	–	–

fitness, [8], one replicate
Conditions	first compound 0.781 µg/mL	first compound 1.562 µg/mL	first compound 3.124 µg/mL
partner 0.781 µg/mL	0.587	0.579	0.211
partner 1.562 µg/mL	0.565	0.538	0.236
partner 3.124 µg/mL	0.584	0.546	0.272

C[C@@H]1O[C@@H]1P(=O)(O)O [Fosfomycin] + CN1C2=CC=CC=C2N=C3C1=CC=CC3=O [Pyocyanin]
Conditions	Bliss interaction score
[1]	0.0453
[2]	0.072
[3]	0.0461
[4]	0.105

fitness
Conditions	partner 0.325 µg/mL	partner 0.65 µg/mL	partner 1.25 µg/mL	partner 1.3 µg/mL	partner 2.5 µg/mL	partner 5 µg/mL
[5], first compound 0.781 µg/mL	–	–	0.673	–	0.707	0.541
[5], first compound 1.562 µg/mL	–	–	0.653	–	0.629	0.472
[5], first compound 3.124 µg/mL	–	–	0.508	–	0.509	0.39
[6], first compound 1.562 µg/mL	–	–	0.671	–	0.632	0.536
[6], first compound 3.124 µg/mL	–	–	0.59	–	0.588	0.471
[6], first compound 6.248 µg/mL	–	–	0.465	–	0.412	0.376
[7], first compound 1.25 µg/mL	0.992	≥ 1	–	0.774	–	–
[7], first compound 2.5 µg/mL	0.971	0.923	–	0.791	–	–
[7], first compound 5 µg/mL	0.837	0.899	–	0.745	–	–
[8], first compound 0.781 µg/mL	–	–	0.547	–	0.548	0.424
[8], first compound 1.562 µg/mL	–	–	0.439	–	0.465	0.38
[8], first compound 3.124 µg/mL	–	–	0.0851	–	0.142	0.24

CO/N=C(\C(=O)N[C@@H]1C(=O)N2C(C(=O)O)=C(COC(C)=O)CS[C@H]12)c1csc(N)n1 [Cefotaxime] + Cc1cc(NS(=O)(=O)c2ccc(N)cc2)no1 [Sulfamethoxazol]
Conditions	Bliss interaction score
[1]	0.046
[2]	0.054
[3]	0.0301
[4]	0.0672

fitness, one replicate
Conditions	partner 0.5 µg/mL	partner 1 µg/mL	partner 2 µg/mL	partner 4 µg/mL	partner 8 µg/mL
[5], first compound 0.039 µg/mL	–	0.724	0.758	0.714	–
[6], first compound 0.00775 µg/mL	–	0.802	0.77	0.757	–
[6], first compound 0.0155 µg/mL	–	0.719	0.638	0.6	–
[6], first compound 0.031 µg/mL	–	0.552	0.513	0.475	–
[6], first compound 0.0625 µg/mL	0.664	0.494	0.438	–	–
[6], first compound 0.125 µg/mL	0.395	0.402	0.275	–	–
[6], first compound 0.25 µg/mL	0.325	0.0239	0.201	–	–
[8], first compound 0.039 µg/mL	–	0.86	–	–	0.922
[8], first compound 0.078 µg/mL	–	–	–	–	0.877
[8], first compound 0.156 µg/mL	–	–	–	–	0.823
[8], first compound 0.312 µg/mL	–	–	–	–	0.588
[8], first compound 0.625 µg/mL	–	0.0508	0.0123	0.0053	–
[8], first compound 1.25 µg/mL	–	0.0193	0.0269	0.0043	–
[8], first compound 2.5 µg/mL	–	0.0252	0.0046	0.0076	–

fitness
Conditions	partner 1 µg/mL	partner 2 µg/mL	partner 4 µg/mL
[5], first compound 0.078 µg/mL	0.737	0.735	0.74
[5], first compound 0.156 µg/mL	0.681	0.686	0.687
[5], first compound 0.312 µg/mL	0.619	0.605	0.631
[6], first compound 0.5 µg/mL	0.221	0.187	0.211
[6], first compound 1 µg/mL	0.115	0.0739	0.0877
[6], first compound 2 µg/mL	0.11	0.0944	0.0802
[7], first compound 0.0018 µg/mL	0.945	0.969	0.913
[7], first compound 0.0035 µg/mL	0.984	0.955	0.943
[7], first compound 0.007 µg/mL	0.894	0.91	0.888
[8], first compound 0.039 µg/mL	–	0.944	0.886
[8], first compound 0.078 µg/mL	0.776	0.821	0.833
[8], first compound 0.156 µg/mL	0.687	0.752	0.748
[8], first compound 0.312 µg/mL	0.408	0.535	0.547
